# Results published in patent US6667312B2, “Thioether substituted imidazoquinolines” (3M Innovative Properties Company, priority 2000, dated 2003).
# Tests used:
# interferon (α) = test: Cytokine Induction in Human Cells: interferon; format: cell-based; settings: human PBMC, 18 to 24 hours, tested 30-0.014 μM, interferon (α) by ELISA; read-out: Lowest Effective Concentration (μM) Interferon
# Description: (§1) An in vitro human blood cell system is used to assess cytokine induction. Activity is based on the measurement of interferon and tumor necrosis factor (α) (IFN and TNF, respectively) secreted into culture media as described by Testerman et. al. In “Cytokine Induction by the Immunomodulators Imiquimod and S-27609”, Journal of Leukocyte Biology, 58, 365-372 (September, 1995).
# (§2) Whole blood from healthy human donors is collected by venipuncture into EDTA vacutainer tubes. Peripheral blood mononuclear cells (PBMC) are separated from whole blood by density gradient centrifugation using Histopaque®-1077. Blood is diluted 1:1 with Dulbecco's Phosphate Buffered Saline (DPBS) or Hank's Balanced Salts Solution (HBSS). The PBMC layer is collected and washed twice with DPBS or HBSS and resuspended at 4×10^6 cells/mL in RPMI complete. The PBMC suspension is added to 48 well flat bottom sterile tissue culture plates (Costar, Cambridge, Mass. or Becton Dickinson Labware, Lincoln Park, N.J.) containing an equal volume of RPMI complete media containing test compound.
# (§3) The compounds are solubilized in dimethyl sulfoxide (DMSO). The DMSO concentration should not exceed a final concentration of 1% for addition to the culture wells. The compounds are generally tested at concentrations ranging from 30-0.014 μM.
# (§4) The solution of test compound is added at 60 μM to the first well containing RPMI complete and serial 3 fold dilutions are made in the wells. The PBMC suspension is then added to the wells in an equal volume, bringing the test compound concentrations to the desired range (30-0.014 μM). The final concentration of PBMC suspension is 2×10^6 cells/mL. The plates are covered with sterile plastic lids, mixed gently and then incubated for 18 to 24 hours at 37° C. in a 5% carbon dioxide atmosphere.
# (§5) Following incubation the plates are centrifuged for 10 minutes at 1000 rpm (˜200× g) at 4° C. The cell-free culture supernatant is removed with a sterile polypropylene pipet and transferred to sterile polypropylene tubes. Samples are maintained at −30 to −70° C. until analysis. The samples are analyzed for interferon (α) by ELISA and for tumor necrosis factor (α) by ELISA or IGEN Assay
# Interferon (α) concentration is determined by ELISA using a Human Multi-Species kit from PBL Biomedical Laboratories, New Brunswick, N.J. Results are expressed in pg/mL.
# (§6) The table below lists the lowest concentration found to induce interferon and the lowest concentration found to induce tumor necrosis factor for each compound.
# [1] = tested on: tumor necrosis factor (α); test: Cytokine Induction in Human Cells: tumor necrosis factor; format: cell-based; set-up: key to Lowest Effective Concentration (μM) Tumor Necrosis Factor: A “*” indicates that no induction was seen at any of the tested concentrations; settings: human PBMC, 18 to 24 hours, tested 30-0.014 μM, TNF by ELISA or IGEN assay; for minimal effective concentration: read-out: Lowest Effective Concentration (μM) Tumor Necrosis Factor
# Description: as §1, §2, §3, §4, §5
# Tumor necrosis factor (α) (TNF) concentration is determined using ELISA kits available from Biosource International, Camarillo, Calif. Alternately, the TNF concentration can be determined by Origen® M-Series Immunoassay and read on an IGEN M-8 analyzer from IGEN International, Gaithersburg, Md. The immunoassay uses a human TNF capture and detection antibody pair from Biosource International, Camarillo, Calif. Results are expressed in pg/mL.
# as §6
Compound,melting point,minimal effective concentration (interferon (α)),minimal effective concentration [1],Lowest Effective Concentration (μM) Tumor Necrosis Factor [1]
"CSCCCCn1cnc2c(N)nc3ccccc3c21 [Example 10, 1-[4-(methylthio)butyl]-1H-imidazo[4,5-c]quinolin-4-amine]",163 to 164 °C,1.11 µM,1.11 µM,–
"CCCCc1nc2c(N)nc3ccccc3c2n1CCCCS(=O)(=O)c1ccc(F)cc1F [Example 38, 2-butyl-1-{4-[(2,4-difluorophenyl)sulfonyl]butyl}-1H-imidazo[4,5-c]quinolin-4-amine]",190 to 193 °C,0.37 µM,1.11 µM,–
"CSCCCn1c(C)nc2c(N)nc3ccccc3c21 [Example 22, 2-methyl-1-[3-(methylthio)propyl]-1H-imidazo[4,5-c]quinolin-4-amine]",199 to 202 °C,0.37 µM,1.11 µM,–
"CCCCc1nc2c(N)nc3ccccc3c2n1CCCCSc1ccc(F)cc1F [Example 37, 2-butyl-1-{4-[(2,4-difluorophenyl)thio]butyl}-1H-imidazo[4,5-c]quinolin-4-amine]",122 to 126 °C,0.37 µM,1.11 µM,–
"CCc1nc2c(N)nc3ccccc3c2n1CCCCSC [Example 28, 2-ethyl-1-[4-(methylthio)butyl]-1H-imidazo[4,5-c]quinolin-4-amine]",183 to 186 °C,0.01 µM,0.37 µM,–
"CCc1nc2c(N)nc3ccccc3c2n1CCCSC [Example 24, 2-ethyl-1-[3-(methylthio)propyl]-1H-imidazo[4,5-c]quinolin-4-amine]",210 to 212 °C,0.12 µM,0.37 µM,–
"Nc1nc2ccccc2c2c1ncn2CCSc1ccccc1 [Example 6, 1-[2-(phenylthio)ethyl]-1H-imidazo[4,5-c]quinolin-4-amine]",233 to 235 °C,3.33 µM,10 µM,–
"Cc1nc2c(N)nc3ccccc3c2n1CCCC[S+](C)[O-] (centres unmarked) [Example 27, 2-methyl-1-[4-(methylsulfinyl)butyl]-1H-imidazo[4,5-c]quinolin-4-amine]",184 to 187 °C,3.33 µM,10 µM,–
"Nc1nc2ccccc2c2c1ncn2CCCCSc1ccccc1 [Example 9, 1-[4-(phenylthio)butyl]-1H-imidazo[4,5-c]quinolin-4-amine]",158 to 160 °C,3.33 µM,3.33 µM,–
"CS(=O)(=O)CCCCCn1cnc2c(N)nc3ccccc3c21 [Example 14, 1-[5-(methylsulfonyl)pentyl]-1H-imidazo[4,5-c]quinolin-4-amine]",199 to 201 °C,3.33 µM,10 µM,–
"Cc1nc2c(N)nc3c(c2n1CCCCS(C)(=O)=O)CCCC3 [Example 74, 2-methyl-1-[4-(methylsulfonyl)butyl]-6,7,8,9-tetrahydro-1H-imidazo[4,5-c]quinolin-4-amine]",213 to 216 °C,–,–,–
"CCOCc1nc2c(N)nc3c(c2n1CCCCS(C)(=O)=O)CCCC3 [Example 79, 2-ethoxymethyl-1-(4-methanesulfonyl-butyl)-6,7,8,9-tetrahydro-1H-imidazo[4,5-c]quinolin-4-amine]",170 to 171 °C,–,–,–

# The next lines start with results.
melting point,Compound,minimal effective concentration (interferon (α)),minimal effective concentration [1],Lowest Effective Concentration (μM) Tumor Necrosis Factor [1]
182 to 185 °C,"CCc1nc2c(N)nc3ccccc3c2n1CCCCS(C)(=O)=O [Example 29, 2-ethyl-1-[4-(methylsulfonyl)butyl]-1H-imidazo[4,5-c]quinolin-4-amine]",0.12 µM,3.33 µM,–
> 250 °C,"CCc1nc2c(N)nc3ccccc3c2n1CCCS(C)(=O)=O [Example 25, 2-ethyl-1-[3-(methylsulfonyl)propyl]-1H-imidazo[4,5-c]quinolin-4-amine]",0.37 µM,3.33 µM,–
158 to 160 °C,"COCCc1nc2c(N)nc3ccccc3c2n1CCCCCS(C)(=O)=O [Example 16, 2-(2-methoxyethyl)-1-[5-(methylsulfonyl)pentyl]-1H-imidazo[4,5-c]quinolin-4-amine]",0.01 µM,0.04 µM,–
126 to 128 °C,"CCCCc1nc2c(N)nc3ccccc3c2n1CCCC[S+](C)[O-] (centres unmarked) [Example 31, 2-butyl-1-[4-(methylsulfinyl)butyl]-1H-imidazo[4,5-c]quinolin-4-amine]",0.04 µM,0.12 µM,–
226 to 228 °C,"CCCCc1nc2c(N)nc3ccccc3c2n1CCS(C)(=O)=O [Example 67, 2-butyl-1-[2-(methylsulfonyl)ethyl]-1H-imidazo[4,5-c]quinolin-4-amine]",0.01 µM,0.04 µM,–
222 to 225 °C,"CCc1nc2c(N)nc3ccccc3c2n1CCS(C)(=O)=O [Example 35, 2-ethyl-1-[2-(methylsulfonyl)ethyl]-1H-imidazo[4,5-c]quinolin-4-amine]",1.11 µM,3.33 µM,–
112 to 114 °C,"CCCCc1nc2c(N)nc3ccccc3c2n1CCCCCSC [Example 17, 2-butyl-1-[5-(methylthio)pentyl]-1H-imidazo[4,5-c]quinolin-4-amine]",0.01 µM,0.04 µM,–
164 to 165 °C,"CCCCc1nc2c(N)nc3ccccc3c2n1CCCCS(C)(=O)=O [Example 5, 2-butyl-1-[4-(methylsulfonyl)butyl]-1H-imidazo[4,5-c]quinolin-4-amine]",0.01 µM,0.04 µM,–
127 to 130 °C,"CCCCc1nc2c(N)nc3ccccc3c2n1CCCCSC [Example 4, 2-butyl-1-[4-(methylthio)butyl]-1H-imidazo[4,5-c]quinolin-4-amine]",0.01 µM,0.01 µM,–
179 to 181 °C,"CCCc1nc2c(N)nc3ccccc3c2n1CCCCCS(C)(=O)=O [Example 21, 1-[5-(methylsulfonyl)pentyl]-2-propyl-1H-imidazo[4,5-c]quinolin-4-amine]",0.12 µM,0.37 µM,–
192 to 195 °C,"CS(=O)(=O)CCCCCn1c(C(F)(F)F)nc2c(N)nc3ccccc3c21 [Example 71, 1-[5-(methylsulfonyl)pentyl]-2-(trifluoromethyl)-1H-imidazo[4,5-c]quinolin-4-amine]",30 µM,–,*
179 to 180 °C,"CCCCc1nc2c(N)nc3ccccc3c2n1CCCCS(=O)(=O)c1ccccc1 [Example 3, 2-butyl-1-[4-(phenylsulfonyl)butyl]-1H-imidazo[4,5-c]quinolin-4-amine]",0.04 µM,0.12 µM,–
225 to 228 °C,"Cc1nc2c(N)nc3ccccc3c2n1CCCS(C)(=O)=O [Example 23, 2-methyl-1-[3-(methylsulfonyl)propyl]-1H-imidazo[4,5-c]quinolin-4-amine]",3.33 µM,10 µM,–
